The procedure of series [1]: After removing the supernatant, the complex was dissolved in methanol, transferred to a new glass vial and the solvent was dried under a gentle nitrogen flow. […] ICell was proportionally added to a vial containing Abaloparatide in its native form to achieve a final Abaloparatide concentration of 1 mg/g. Abaloparatide-HIP complexes were pre-dissolved in DMSO (corresponding to 5% weight of the final formulation), followed by the proportional addition of ICell to obtain a final Abaloparatide concentration of 1 mg/g.

The subject of series [2] is S. aureus strain S54F9. Kind of series: Microbiological assay, Disc Diffusion Assay. To be noted: Example 24, wells: 0.5 mg linoleic acid in DMSO; 0.5 mg vancomycin hydrochloride; 45 µl HIP complex + 45 µl PBS; 24 hours at 37 °C. The series is classed as cell-based, Staphylococcus aureus. How it is done:
Then, 3 wells were carved out with the use of the broad side of an autoclaved 1 ml pipette tip.
This setup was repeated for three experimental replicates. Each plate was incubated for 24 hours at 37 °C, before inspection.
Then, 3 wells were carved out with the use of the broad side of an autoclaved 1 ml pipette tip. In one well, 0.5 mg linoleic acid was injected as 90 µl 0.22 µm-sterile-filtered dimethyl sulfoxide. In a second well, 90 µl autoclaved phosphate-buffered saline with 0.5 mg vancomycin hydrochloride was injected. […] The plate was incubated for 24 hours at 37 °C, before inspection.
In general terms: A growth-free zone around the sample is the usual read-out of agar diffusion tests.

For series [3] the following is noted: SuBen:GTH:DMSO (60:15:25) ICell, visual.

Where a name gives a salt, the structure may show the parent alone. Read-outs that look alike come from different tables or passages of the source.

This note sets out measurements from patent publication EP4282435A1, “FORMULATIONS OF ACTIVE PHARMACEUTICAL INGREDIENTS AND EXCIPIENTS IN ICELLS VIA HYDROPHOBIC ION PAIRING” (Danmarks Tekniske Universitet, priority 2022, dated 2023).

Regarding `CC[C@H](C)[C@H](NC(=O)[C@H](CO)NC(=O)[C@H](CCCCN)NC(=O)CNC(=O)[C@H](CCCCN)NC(=O)[C@H](CC(=O)O)NC(=O)[C@H](Cc1cnc[nH]1)NC(=O)[C@H](CC(C)C)NC(=O)[C@H](CC(C)C)NC(=O)[C@H](CCC(N)=O)NC(=O)[C@H](Cc1cnc[nH]1)NC(=O)[C@H](CCC(=O)O)NC(=O)[C@H](CO)NC(=O)[C@@H](NC(=O)[C@H](C)N)C(C)C)C(=O)N[C@@H](CCC(N)=O)C(=O)N[C@@H](CC(=O)O)C(=O)N[C@@H](CC(C)C)C(=O)N[C@@H](CCCNC(=N)N)C(=O)N[C@@H](CCCNC(=N)N)C(=O)N[C@@H](CCCNC(=N)N)C(=O)N[C@@H](CCC(=O)O)C(=O)N[C@@H](CC(C)C)C(=O)N[C@@H](CC(C)C)C(=O)N[C@@H](CCC(=O)O)C(=O)N[C@@H](CCCCN)C(=O)N[C@@H](CC(C)C)C(=O)N[C@@H](CC(C)C)C(=O)NC(C)(C)C(=O)N[C@@H](CCCCN)C(=O)N[C@@H](CC(C)C)C(=O)N[C@@H](Cc1cnc[nH]1)C(=O)N[C@H](C(=O)N[C@@H](C)C(N)=O)[C@@H](C)O` [Abaloparatide], the “solubility in ICell” value in series [1] is on record as “insoluble”.

Consider `CN[C@H](CC(C)C)C(=O)N[C@H]1C(=O)N[C@@H](CC(N)=O)C(=O)N[C@H]2C(=O)N[C@H]3C(=O)N[C@H](C(=O)N[C@H](C(=O)O)c4cc(O)cc(O)c4-c4cc3ccc4O)[C@H](O)c3ccc(c(Cl)c3)Oc3cc2cc(c3O[C@@H]2O[C@H](CO)[C@@H](O)[C@H](O)[C@H]2O[C@H]2C[C@](C)(N)[C@H](O)[C@H](C)O2)Oc2ccc(cc2Cl)[C@H]1O` [Vancomycin hydrochloride], for which, in series [2], the “antimicrobial activity (clearance of S. aureus)” value is “clearance of S. aureus bacteria”. The “solubility in ICell” value in series [3] is recorded as “not dissolvable”.
